Among the data in publication PMC12040169 (PLOS Biology, 2025) are viability values, retold here.

Each structure is given as a SMILES string.

One series is described as follows: in vitro. Conditions: human, hela cells, % viability.
A word on the viability: it is a read-out of living cells in per cent, often relative to untreated cells. As for `COc1ccc(C(=O)C2=C(O)C(=O)N(CCN3CCNCC3)C2c2ccc(Cl)c(Cl)c2)cc1` (centres unmarked) [CBK264616], the viability at 28.5 h, 10 µM amounted to 95.1%. On to `O=[S+]([O-])(c1ccccc1)N1CCC(N(CCc2ccccc2)Cc2ccccc2)CC1` [CBK264617G], for which the viability at 28.5 h, 10 µM came to 102%.

`O=C(NC(=S)Nc1cccc(Cl)c1)c1cncc(Br)c1` [CBK264618]: the viability at 28.5 h, 10 µM is 94.1%. On the same count and under the same terms, the result for `Cc1ccc(C(=O)C2=C(O)C(=O)N(Cc3cccnc3)C2c2cccc(Oc3ccccc3)c2)o1` (centres unmarked) [CBK264619] reads 96.3%; that for `O=C(CCCN1C(=O)/C(=C/c2ccc3c(c2)OCO3)SC1=S)Nc1ccc([N+](=O)[O-])cc1` [CBK264623], 105%; that for `COCCCNC(=O)COc1cc(C)ccc1C` [CBK264625], 88.4%. Still for that read-out and setting: the result for `Cc1cccc(-n2nc3c4nonc4ccc3[n+]2[O-])c1C` [CBK264626] reads 93.6%; that for `COc1ccc(CN2CCC(N3CCc4ccccc4C3)CC2)cc1OCc1ccccc1` [CBK264629G], 91.4%; that for `Cc1cc(=O)nc(SC(C)C(=O)O)[nH]1` (centres unmarked) [CBK264630], 95.3%. On the same count and under the same terms, the result for `CCN1CCN(C2CCN(Cc3ccccc3[N+](=O)[O-])CC2)CC1` [CBK264631G] reads 98.1%. Take `O=C(CN1C(=O)S/C(=C\c2ccc(OCc3ccccc3F)cc2)C1=O)c1ccc(Cl)cc1` [CBK264632]: the viability at 28.5 h, 10 µM is 97.6%. Same read-out and setting: the result for `COc1ccc(-n2nc3ccc(NC(=O)c4sc5ccccc5c4Cl)cc3n2)cc1Cl` [CBK264633] reads 94.5%; that for `O=C(CN1C(=O)S/C(=C\c2ccc(OCc3ccccc3)cc2)C1=O)c1ccccc1` [CBK264636], 95.1%; that for `O=C1/C(=C/c2ccc(OCc3cccc([N+](=O)[O-])c3)cc2)SC(=S)N1CCc1ccccc1` [CBK264641], 92.6%.

Take `CCOc1cc([N+](=O)[O-])cc(C=O)c1OC(C)C(=O)O` (centres unmarked) [CBK264642]: the viability at 28.5 h, 10 µM was found to be 89.6%. The same measure, in the same setting: with `CC(=O)Nc1ccc(S(=O)(=O)Nc2ccc(S(=O)(=O)Nc3ccc(C)c(C)c3)cc2)cc1` [CBK264643] the figure was 101%; with `Cc1ccc(CN(CC(=O)N2CCCCC2)S(=O)(=O)c2ccc(C)cc2)cc1` [CBK264646], 91.6%. The same measure, in the same setting: the result for `Cc1ccc(C2=N/C(=C/c3ccc(OS(=O)(=O)c4ccc(C)c([N+](=O)[O-])c4)cc3)C(=O)O2)cc1` [CBK264647] reads 99.1%.

In the case of `Nc1nnc(SCc2nc3ccccc3n2Cc2ccccc2)s1` [CBK264649], the viability at 28.5 h, 10 µM came to 92.1%.

For `Cc1ccccc1OCC(=O)Nc1ccc(CSc2ccccc2)cc1` [CBK264651], the viability at 28.5 h, 10 µM is 93%. On the same count and under the same terms, the result for `CCc1cc(=O)oc2cc(OC(=O)c3ccco3)ccc12` [CBK264657] reads 84.8%; that for `CCc1ccc(OCC(=O)Nc2cccnc2)cc1` [CBK264658], 96.6%. With `O=C(CN(Cc1ccccc1Cl)S(=O)(=O)c1ccc(Cl)cc1)NC1CCCCC1` [CBK264659], the viability at 28.5 h, 10 µM amounted to 97.5%. Same read-out and setting: with `COc1ccc(C2C(C(=O)c3ccc(Cl)cc3)=C(O)C(=O)N2CCN(C)C)cc1OC` (centres unmarked) [CBK264660] the figure was 103%; with `c1ccc(Oc2cccc(CN3CCC(N4CCN(c5ccccc5)CC4)CC3)c2)cc1` [CBK264662G], 88%.

As for `O=C(O)c1cc(-c2ccccc2)nc(Nc2nc3ccccc3s2)n1` [CBK264665], the viability at 28.5 h, 10 µM was 108%. The same measure, in the same setting: the result for `COc1ccc(C(=O)C2=C(O)C(=O)N(CCN3CCNCC3)C2c2ccccc2F)cc1` (centres unmarked) [CBK264666] reads 99.4%; that for `O=C1/C(=C/c2ccc(OCc3cccc4ccccc34)cc2)SC(=S)N1Cc1cccnc1` [CBK264669], 95.6%; that for `Cc1cccc(NC(=O)CN2C(=O)S/C(=C\c3cc(C)n(-c4cc(C)ccn4)c3C)C2=O)c1` [CBK264671], 93.4%. The same measure, in the same setting: the result for `CC(Oc1ccc(Cl)cc1Cl)C(=O)O/N=C(\N)c1ccccn1` (centres unmarked) [CBK264673] reads 100%.

In the case of `O=C1/C(=C/c2c(NCCc3ccccc3)nc3ccccn3c2=O)SC(=S)N1Cc1ccco1` [CBK264674], the viability at 28.5 h, 10 µM came out at 96.4%. On the same count and under the same terms, the result for `Cc1ccc(S(=O)(=O)NCCSCc2ccc(Cl)c(Cl)c2)cc1[N+](=O)[O-]` [CBK264675] reads 99.9%; that for `O=C(CCC(=O)c1ccc2c(c1)OCCO2)OCC(=O)c1ccc(F)cc1` [CBK264679], 103%; that for `Cc1cc(C)c(OCC(=O)Nc2cccc(-c3nc4cc(C(C)C)ccc4o3)c2)c([N+](=O)[O-])c1` [CBK264680], 88.6%. On the same count and under the same terms, with `COc1ccc(Br)cc1CN1CCC(N2CCN(c3ccccc3OC)CC2)CC1` [CBK264681G] the figure was 88.4%; with `Cc1cccc(OCCn2c(SCCC(=O)O)nc3ccccc32)c1` [CBK264682], 93.5%; with `CCOC(=O)CN1C(=O)S/C(=C/c2ccc(OCc3ccc(Br)cc3)cc2)C1=O` [CBK264686], 99.1%. Regarding `Cc1cc(CSc2ccccc2)ccc1NC(=O)/C=C/c1cccc([N+](=O)[O-])c1` [CBK264687], the viability at 28.5 h, 10 µM is 111%. Still for that read-out and setting: with `COc1ccccc1N1CCN(C2CCN(S(=O)(=O)c3ccc(NC(C)=O)cc3)CC2)CC1` [CBK264688] the figure was 93.7%; with `CC(O)c1cccc(NC(=O)CCC(=O)O)c1` (centres unmarked) [CBK264691], 94.1%; with `NCC(=O)Nc1ccc(Br)cc1C(=O)c1ccccc1Cl` [CBK264692B], 90.5%. Still for that read-out and setting: with `Cc1cc(C)c2oc(-c3ccc(Cl)c(NC(=O)Cc4ccc(Cl)cc4)c3)nc2c1` [CBK264695] the figure was 97.8%; with `O=C1/C(=C/c2c(NCCCn3ccnc3)nc3ccccn3c2=O)SC(=S)N1C1CCCCC1` [CBK264696], 95.2%. Same read-out and setting: with `O=S(=O)(NC1CCCCC1Oc1ccccc1)c1ccc(Cl)cc1` (centres unmarked) [CBK264697] the figure was 114%; with `O=C(CN1C(=O)c2ccccc2C1=O)OCC(=O)N1c2ccccc2Sc2ccccc21` [CBK264701], 91.8%; with `O=C1/C(=C/c2ccc(OCc3ccccc3Cl)c(Cl)c2)SC(=S)N1Cc1cccnc1` [CBK264702], 92.4%. Take `COc1cc(CN2CCC(N3CCCCCC3)CC2)ccc1OCc1ccccc1` [CBK264709G]: the viability at 28.5 h, 10 µM turned out to be 90.6%.

As for `OCCN1CCN(C2CCN(Cc3ccccc3Cl)CC2)CC1` [CBK264710], the viability at 28.5 h, 10 µM was determined as 90.1%. For `Nc1nonc1-c1nc2ccccc2n1CC(=O)NCc1ccccc1` [CBK264711], the viability at 28.5 h, 10 µM is 92.1%. As to `O=C(O)c1cc(-c2ccc(/C=C3\SC(=S)N(Cc4cccnc4)C3=O)o2)ccc1Cl` [CBK264712], the viability at 28.5 h, 10 µM was found to be 112%.

As to `Cc1cc(C(=O)O)ccc1-c1ccc(/C=N/n2cnnc2)o1` [CBK264713], the viability at 28.5 h, 10 µM is 92.5%.

As for `CN(C)S(=O)(=O)c1ccc(C(=O)C2=C(O)C(=O)N(Cc3cccnc3)C2c2ccc(F)cc2)cc1` (centres unmarked) [CBK264715], the viability at 28.5 h, 10 µM was determined as 94%.

Still in this series, the particulars now being: human, hela cells, % viability, bulk resorufin, single well.
In the case of `NCCCC(=O)OC1N=C(c2ccccc2Cl)c2cc(Br)ccc2NC1=O` (centres unmarked) [CBK264689B], the viability at 28.5 h, 10 µM was found to be 104%.
